In US20240092784A1, “CONDENSED HETEROCYCLIC COMPOUND” (NISSAN CHEMICAL CORPORATION, priority 2020, published 2024):
pIC50: −log10 of the molar value.

Molecular target: human SPR (Homo sapiens (Human), UniProt P35270)
Assay: Evaluation Example 2: Measurement of human SPR inhibitory activity (seven concentrations, sepiapterin absorbance at 420 nm)
Assay type: biochemical
Settings: Evaluation Example 2, seven concentrations 0.14 nM to 100 nM, 240 minutes at room temperature, read-out: IC50
How it was run: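 His-tagged full-length human SPR (1-261) was expressed in E. coli and the tag removed. Enzyme at 150 ng/mL in 100 mM Tris-HCl pH 7.5/0.01% BSA was mixed with compound (0.14–100 nM, seven points), 120 μM sepiapterin and 160 μM NADPH, both as added-solution concentrations. After 240 min at room temperature, remaining sepiapterin was read at 420 nm to give percent inhibition.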

Sequence of human SPR (P35270 whole entry): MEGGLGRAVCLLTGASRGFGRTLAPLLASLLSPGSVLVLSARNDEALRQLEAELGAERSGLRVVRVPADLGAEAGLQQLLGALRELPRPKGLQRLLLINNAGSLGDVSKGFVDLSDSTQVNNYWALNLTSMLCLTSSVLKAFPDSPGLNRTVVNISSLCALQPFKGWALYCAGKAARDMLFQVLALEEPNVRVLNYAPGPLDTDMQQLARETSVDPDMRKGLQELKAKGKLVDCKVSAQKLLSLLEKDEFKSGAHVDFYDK

Compound | pIC50
Cc1nn2c(O)c(C(=O)NC3CC3)c(=O)n(CC(C)C)c2c1/C=C/C(=O)N1CCC[C@@H]1c1ccccc1 [Synthesis Example 673, (R,E)-N-Cyclopropyl-7-hydroxy-4-isobutyl-2-methyl-5-oxo-3-(3-oxo-3-(2-phenylpyrrolidin-1-yl)prop-1-en-1-yl)-4,5-dihydropyrazolo[1,5-a]pyrimidine-6-carboxamide] | 8.87
Cc1noc(C)c1/C=C/c1cnn2c(O)c(C(=O)NC3CC3)c(=O)n(CC(C)C)c12 [Synthesis Example 238, (E)-N-Cyclopropyl-3-(2-(3,5-dimethylisoxazol-4-yl)vinyl)-7-hydroxy-4-isobutyl-5-oxo-4,5-dihydropyrazolo[1,5-a]pyrimidine-6-carboxamide] | 9.05
CC(C)(C)Cn1c(=O)c(C(=O)NC2CC2)c(O)n2nc3ncccc3c12 [Synthesis Example 391, N-Cyclopropyl-4-hydroxy-1-neopentyl-2-oxo-1,2-dihydropyrido[2′,3′:3,4]pyrazolo[1,5-a]pyrimidine-3-carboxamide] | 9.04
CC(C)Cn1c(=O)c(C(=O)NC2CC2)c(O)n2ncc(/C=C/C(=O)N3CCC4CC43)c12 (racemic) [compound 588, (E)-3-(3-(2-Azabicyclo[3.1.0]hexan-2-yl)-3-oxoprop-1-en-1-yl)-N-cyclopropyl-7-hydroxy-4-isobutyl-5-oxo-4,5-dihydropyrazolo[1,5-a]pyrimidine-6-carboxamide (racemate)] | 8.80
CC(C)Cn1c(=O)c(C(=O)NC2CC2)c(O)n2ncc(/C=C/C(=O)N3CCOC[C@H]3C(F)(F)F)c12 [compound 534, (S,E)-N-Cyclopropyl-7-hydroxy-4-isobutyl-5-oxo-3-(3-oxo-3-(3-(trifluoromethyl)morpholino)prop-1-en-1-yl)-4,5-dihydropyrazolo[1,5-a]pyrimidine-6-carboxamide] | 9.06
Cc1cnc(Nc2cc3n(CC(C)(C)C)c(=O)c(C(=O)NC4CC4)c(O)n3n2)cn1 [Synthesis Example 333, N-Cyclopropyl-7-hydroxy-2-((5-methylpyrazin-2-yl)amino)-4-neopentyl-5-oxo-4,5-dihydropyrazolo[1,5-a]pyrimidine-6-carboxamide] | 8.73
CC(C)(C)Cn1c(=O)c(C(=O)NC2CC2)c(O)n2nc(-c3n[nH]cc3C#N)cc12 [Synthesis Example 292, 2-(4-Cyano-1H-pyrazol-3-yl)-N-cyclopropyl-7-hydroxy-4-neopentyl-5-oxo-4,5-dihydropyrazolo[1,5-a]pyrimidine-6-carboxamide] | 8.88
CC(C)(C)Cn1c(=O)c(C(=O)NC2CC2)c(O)n2nc(-c3[nH]ncc3C(=O)N3CCOCC3)cc12 [Synthesis Example 311, N-Cyclopropyl-7-hydroxy-2-(4-(morpholine-4-carbonyl)-1H-pyrazol-5-yl)-4-neopentyl-5-oxo-4,5-dihydropyrazolo[1,5-a]pyrimidine-6-carboxamide] | 8.92
Cc1nnc(/C=C/c2cnn3c(O)c(C(=O)NC4CC4)c(=O)n(CC(C)C)c23)o1 [Synthesis Example 269, (E)-N-Cyclopropyl-7-hydroxy-4-isobutyl-3-(2-(5-methyl-1,3,4-oxadiazol-2-yl)vinyl)-5-oxo-4,5-dihydropyrazolo[1,5-a]pyrimidine-6-carboxamide] | 8.93
Cc1nn2c(O)c(C(=O)NC3CC3)c(=O)n(CC(C)C)c2c1/C=C/C(=O)N1CCC[C@H]1C(C)C [Synthesis Example 630, (S,E)-N-Cyclopropyl-7-hydroxy-4-isobutyl-3-(3-(2-isopropylpyrrolidin-1-yl)-3-oxoprop-1-en-1-yl)-2-methyl-5-oxo-4,5-dihydropyrazolo[1,5-a]pyrimidine-6-carboxamide] | 8.91

Same assay, conditions: sepiapterin absorbance, Table 41, read-out: concentration at 50% inhibition of human SPR (IC50)

Compound | pIC50
CC(C)Cn1c(=O)c(C(=O)NC2CC2)c(O)n2ncc(/C=C/C(=O)N3CCOc4ccncc43)c12 [Synthesis Example 738, (E)-N-Cyclopropyl-3-(3-(2,3-dihydro-4H-pyrido[4,3-b][1,4]oxazin-4-yl)-3-oxoprop-1-en-1-yl)-7-hydroxy-4-isobutyl-5-oxo-4,5-dihydropyrazolo[1,5-a]pyrimidine-6-carboxamide] | 8.86
